Our source for the Emax and Activity values is ChEMBL document CHEMBL5385935, “Structural Characterization and Rat Aortic Vascular Reactivity of Bradykinin-Potentiating Peptides (BPPs) from the Snake Venom of Bothrops moojeni from Delta do Parnaíba Region, Brazil” (2024).

Experiment [1] has as its system Thoracic aorta. The experiment in a line: Vasorelaxant activity in Wistar rat endothelium-functional thoracic aorta assessed as reduction in phenylephrine-induced isometric contraction by measuring maximal efficacy relative to control.
For experiment [2], the system named is Thoracic aorta. The experiment is described as follows: Vasorelaxant activity in Wistar rat endothelium-functional thoracic aorta assessed as reduction in phenylephrine-induced isometric contraction. Type of experiment: tissue-based.

Structures are written as SMILES. Non-standard residues stand in square brackets, D forms with d. Residues, ends and D or L forms follow the SMILES beside them. pGlu = O=C1CC[C@@H](C(=O)O)N1

The Emax is the greatest response seen or fitted, relative to the assay's reference. As for `CC[C@H](C)[C@H](NC(=O)[C@H](CCC(=O)O)NC(=O)[C@@H]1CCCN1C(=O)CNC(=O)[C@@H]1CCCN1C(=O)[C@H](CCCNC(=N)N)NC(=O)[C@@H]1CCCN1C(=O)[C@H](Cc1c[nH]c2ccccc12)NC(=O)CNC(=O)CNC(=O)[C@@H]1CCC(=O)N1)C(=O)N1CCC[C@H]1C(=O)N1CCC[C@H]1C(=O)O` ([pGlu]GGWPRPGPEIPP-OH), in the experiment on Thoracic aorta [1], the Emax came out at 18.3%. For the same compound, in the experiment on Thoracic aorta [2], the Activity result was “Dose-Dependent Effect”.

As for `CC(C)[C@H](NC(=O)[C@H](CCCCN)NC(=O)[C@@H]1CCCN1C(=O)CNC(=O)[C@@H]1CCCN1C(=O)[C@H](Cc1c[nH]c2ccccc12)NC(=O)[C@H](CCCCN)NC(=O)[C@@H]1CCC(=O)N1)C(=O)N1CCC[C@H]1C(=O)N1CCC[C@H]1C(=O)O` ([pGlu]KWPGPKVPP-OH), the Emax with Thoracic aorta [1] was 37.5%. Also, the Activity entry in the experiment on Thoracic aorta [2] was “Dose-Dependent Effect”.

With `CC[C@H](C)[C@H](NC(=O)[C@H](CCC(=O)O)NC(=O)[C@@H]1CCCN1C(=O)CNC(=O)[C@@H]1CCCN1C(=O)[C@H](CCCNC(=N)N)NC(=O)[C@@H]1CCCN1C(=O)[C@H](Cc1c[nH]c2ccccc12)NC(=O)[C@H](CCCCN)NC(=O)[C@@H]1CCC(=O)N1)C(=O)N1CCC[C@H]1C(=O)N1CCC[C@H]1C(=O)O` ([pGlu]KWPRPGPEIPP-OH), the Emax with Thoracic aorta [1] was 32.8%. Also, the Activity result in the experiment on Thoracic aorta [2] was “Dose-Dependent Effect”.
